# Measurements published in ChEMBL document CHEMBL1136146, “Pyrimidinone antibiotics--heterocyclic analogues with improved antibacterial spectrum” (Bioorg Med Chem Lett, 2003).
# Columns and labels:
# Oryctolagus cuniculus = species: Oryctolagus cuniculus; experiment: Inhibitory activity tested against eucaryotic translation in Rabbit Reticulocyte Lysate System L 4540; format: functional
# Escherichia coli = experiment: Inhibitory activity tested against procaryotic translation in Escherichia coli S30 Extract System; format: functional, organism-based
# [1] = In vitro selectivity index was measured as IC50 eucaryotic translation/procaryotic translation; format: functional
# Staphylococcus aureus [2] = experiment: In vitro minimum inhibitory concentration against Staphylococcus aureus 133.; format: functional
# [3] = Antibacterial activity against […] pneumoniae 1707/4 was determined; format: functional
# Staphylococcus aureus [4] = experiment: Antibacterial activity against Staphylococcus aureus 133 was determined; format: functional
# [5] = tested on: Staphylococcus epidermidis; experiment: Antibacterial activity against Staphylococcus epidermidis 18570 was determined; format: functional
# [6] = Antibacterial activity against […] pneumoniae G9a was determined; format: functional
# Enterococcus faecium [7] = experiment: Antibacterial activity against Enterococcus faecium L 4001 was determined; format: functional
# Enterococcus faecium [8] = experiment: Antibacterial activity against Enterococcus faecium 18531 was determined; format: functional
IC50 (Oryctolagus cuniculus),IC50 (Escherichia coli),MIC (Staphylococcus aureus [2]),Compound,further results
380 nM,1000 nM,1.6 µg/mL,CN(C(=O)C[C@@H](N)CCCCN)C1CN=C(Nc2ncccn2)NC1=O.Cl.Cl (stereo partly drawn),Selectivity [1]: 0.38
70 nM,,< 0.05 µg/mL,CC(=O)O.CN(C(=O)C[C@@H](N)CCCN=C(N)N)C1CN=C(Nc2ccccn2)NC1=O (stereo partly drawn),MIC [3]: 2 µg/mL; ED100 (Staphylococcus aureus [4]): 1 mg/kg; MIC (Staphylococcus aureus [4]): 0.5 µg/mL; MIC [5]: 0.25 µg/mL; MIC [6]: 2 µg/mL; MIC (Enterococcus faecium [7]): 2 µg/mL; MIC (Enterococcus faecium [8]): > 64 µg/mL
,> 64000 nM,> 100 µg/mL,CN(C(=O)C[C@@H](N)c1cc(CN)on1)C1CN=C(NC(N)=O)NC1=O.Cl.Cl (stereo partly drawn),
< 100 nM,< 100 nM,< 0.1 µg/mL,Br.CN(C(=O)C[C@@H](N)CCCCN)C1CN=C(Nc2cnccn2)NC1=O (stereo partly drawn),
100 nM,< 50 nM,0.4 µg/mL,Br.CN(C(=O)C[C@@H](N)CCCN=C(N)N)C1CN=C(Nc2ncccn2)NC1=O (stereo partly drawn),Selectivity [1]: > 2
,3200 nM,25 µg/mL,Br.CN(C(=O)C[C@@H](N)CCCCN)C1CN=C(Nc2nc3ccccc3s2)NC1=O (stereo partly drawn),
,,> 100 µg/mL,CC(=O)O.CN(C1=NCC(N(C)C(=O)C[C@@H](N)CCCCN)C(=O)N1)c1ccccn1 (stereo partly drawn),
,1000 nM,50 µg/mL,Br.Cc1csc(NC2=NCC(N(C)C(=O)C[C@@H](N)CCCCN)C(=O)N2)n1 (stereo partly drawn),
,> 64000 nM,50 µg/mL,CC(=O)O.CN(C(=O)C[C@@H](N)CCCCN)C1CN=C(Nc2cccnc2)NC1=O (stereo partly drawn),
,,100 µg/mL,CC(=O)O.CN(C(=O)C[C@@H](N)CCCCN)C1CN=C(Nc2ccccc2)NC1=O (stereo partly drawn),
,32000 nM,50 µg/mL,CN(C(=O)C[C@@H](N)c1csc(CN)n1)C1CN=C(NC(N)=O)NC1=O.O=S(=O)(O)C(F)(F)F (stereo partly drawn),
,,100 µg/mL,CN(C(=O)C[C@@H](N)CSCCN)C1CN=C(NC(N)=O)NC1=O.Cl.Cl (stereo partly drawn),
,,> 100 µg/mL,CN(C(=O)C[C@@H](N)CS(=O)(=O)CCN)C1CN=C(NC(N)=O)NC1=O.Cl.Cl (stereo partly drawn),
2800 nM,500 nM,0.05 µg/mL,CN(C(=O)C[C@@H](N)CCCCN)C1CN=C(NC(N)=O)NC1=O.Cl.Cl (stereo partly drawn),Selectivity [1]: 5.3
50 nM,50 nM,6.3 µg/mL,CC(=O)O.CN(C(=O)C[C@@H](N)CCCCN)C1CN=C(Nc2ccc3ccccc3n2)NC1=O (stereo partly drawn),Selectivity [1]: 1
100 nM,100 nM,0.1 µg/mL,CC(=O)O.CN(C(=O)C[C@@H](N)CCCN=C(N)N)C1CN=C(Nc2ccc3ccccc3n2)NC1=O (stereo partly drawn),MIC [3]: 8 µg/mL; MIC (Staphylococcus aureus [4]): 0.5 µg/mL; MIC [5]: 0.25 µg/mL; MIC (Enterococcus faecium [7]): 8 µg/mL; MIC (Enterococcus faecium [8]): > 16 µg/mL; Selectivity [1]: 1
,1000 nM,50 µg/mL,CC(=O)O.CN(C(=O)C[C@@H](N)CCCCN)C1CN=C(Nc2nc3ccccc3[nH]2)NC1=O (stereo partly drawn),
,,> 100 µg/mL,CN(C(=O)C[C@@H](N)CCCCN)C1CN=C(NC2=NCCCN2)NC1=O.Cl.Cl (stereo partly drawn),
,,0.2 µg/mL,CC(=O)O.CN(C(=O)C[C@@H](N)CCCCN)C1CN=C(Nc2ccccn2)NC1=O (stereo partly drawn),
,16000 nM,100 µg/mL,CN(C(=O)C[C@@H](N)c1csc(CCN)n1)C1CN=C(NC(N)=O)NC1=O.O=S(=O)(O)C(F)(F)F (stereo partly drawn),
170 nM,300 nM,0.1 µg/mL,CN(C(=O)C[C@@H](N)CCCN=C(N)N)C1CN=C(NC(N)=O)NC1=O.Cl.Cl (stereo partly drawn),MIC [3]: 32 µg/mL; ED100 (Staphylococcus aureus [4]): 0.25 mg/kg; MIC (Staphylococcus aureus [4]): 0.25 µg/mL; MIC [5]: 0.25 µg/mL; MIC [6]: 16 µg/mL; MIC (Enterococcus faecium [7]): 2 µg/mL; MIC (Enterococcus faecium [8]): > 16 µg/mL; Selectivity [1]: 0.57
